Columns and labels:
[1] = for vapor or sublimation pressure: Inclined piston gauge
[2] = Molar enthalpy of transition or fusion; details: Crystal; Adiabatic calorimetry
[3] = molar heat capacity at constant pressure; details: 101.33 kPa, Vacuum adiabatic calorimetry
[4] = molar heat capacity at saturation pressure; details: Vacuum adiabatic calorimetry

c1ccc2nc3ccccc3nc2c1 [phenazine]
Details | Triple point temperature [K] | molar heat capacity [J/K/mol] | molar heat capacity at constant pressure [J/K/mol] | vapor or sublimation pressure [kPa]
[1], 389.95 K, Crystal | – | – | – | 0.0331
[1], 400.01 K, Crystal | – | – | – | 0.0682
[1], 410 K, Crystal | – | – | – | 0.1346
[1], 420 K, Crystal | – | – | – | 0.2572
[1], 430 K, Crystal | – | – | – | 0.476
[1], 449.96 K, Liquid | – | – | – | 1.444
[1], 454.97 K, Liquid | – | – | – | 1.754
[1], 460.06 K, Liquid | – | – | – | 2.127
[1], 464.96 K, Liquid | – | – | – | 2.548
[1], 469.96 K, Liquid | – | – | – | 3.05
[1], 471.96 K, Liquid | – | – | – | 3.273
[1], Crystal, Adiabatic calorimetry | 447.91 | – | – | –
[3], 5 K, Crystal | – | – | 0.38 | –
[3], 10 K, Crystal | – | – | 2.76 | –
[3], 20 K, Crystal | – | – | 13.34 | –
[3], 30 K, Crystal | – | – | 25.08 | –
[3], 40 K, Crystal | – | – | 35.19 | –
[3], 50 K, Crystal | – | – | 43.5 | –
[3], 60 K, Crystal | – | – | 50.49 | –
[3], 70 K, Crystal | – | – | 56.66 | –
[3], 80 K, Crystal | – | – | 62.3 | –
[3], 90 K, Crystal | – | – | 67.8 | –
[3], 100 K, Crystal | – | – | 73.23 | –
[3], 120 K, Crystal | – | – | 84.23 | –
[3], 140 K, Crystal | – | – | 95.77 | –
[3], 160 K, Crystal | – | – | 107.87 | –
[3], 180 K, Crystal | – | – | 120.51 | –
[3], 200 K, Crystal | – | – | 133.66 | –
[3], 220 K, Crystal | – | – | 147.13 | –
[3], 240 K, Crystal | – | – | 160.98 | –
[3], 260 K, Crystal | – | – | 175.01 | –
[3], 280 K, Crystal | – | – | 188.99 | –
[3], 298.15 K, Crystal | – | – | 201.63 | –
[3], 300 K, Crystal | – | – | 202.93 | –
[3], 320 K, Crystal | – | – | 216.89 | –
[3], 340 K, Crystal | – | – | 230.56 | –
[3], 360 K, Crystal | – | – | 244.06 | –
[3], 380 K, Crystal | – | – | 257.36 | –
[3], 400 K, Crystal | – | – | 270.46 | –
[3], 420 K, Crystal | – | – | 283.41 | –
[3], 440 K, Crystal | – | – | 296.01 | –
[3], 447.91 K, Crystal | – | – | 300.87 | –
[3], 447.91 K, Liquid | – | – | 331.96 | –
[3], 460 K, Liquid | – | – | 337 | –
[3], 480 K, Liquid | – | – | 345.14 | –
[3], 500 K, Liquid | – | – | 353.07 | –
[3], 520 K, Liquid | – | – | 360.67 | –
[4], 6.135 K, Crystal | – | 0.71 | – | –
[4], 7.091 K, Crystal | – | 1.09 | – | –
[4], 8.146 K, Crystal | – | 1.57 | – | –
[4], 9.073 K, Crystal | – | 2.09 | – | –
[4], 9.999 K, Crystal | – | 2.77 | – | –
[4], 11.1 K, Crystal | – | 3.68 | – | –
[4], 12.32 K, Crystal | – | 4.78 | – | –
[4], 13.68 K, Crystal | – | 6.14 | – | –
[4], 15.19 K, Crystal | – | 7.78 | – | –
[4], 16.85 K, Crystal | – | 9.645 | – | –
[4], 18.69 K, Crystal | – | 11.81 | – | –
[4], 20.75 K, Crystal | – | 14.23 | – | –
[4], 23.04 K, Crystal | – | 16.99 | – | –
[4], 25.58 K, Crystal | – | 20 | – | –
[4], 28.4 K, Crystal | – | 23.28 | – | –
[4], 31.54 K, Crystal | – | 26.77 | – | –
[4], 35.04 K, Crystal | – | 30.43 | – | –
[4], 38.95 K, Crystal | – | 34.21 | – | –
[4], 43.3 K, Crystal | – | 38.1 | – | –
[4], 48.12 K, Crystal | – | 42.05 | – | –
[4], 52.7 K, Crystal | – | 45.41 | – | –
[4], 53.49 K, Crystal | – | 46.07 | – | –
[4], 57.63 K, Crystal | – | 48.91 | – | –
[4], 59.46 K, Crystal | – | 50.14 | – | –
[4], 63.45 K, Crystal | – | 52.68 | – | –
[4], 69.82 K, Crystal | – | 56.56 | – | –
[4], 76.91 K, Crystal | – | 60.58 | – | –
[4], 84.71 K, Crystal | – | 64.9 | – | –
[4], 93.41 K, Crystal | – | 69.64 | – | –
[4], 102.69 K, Crystal | – | 74.69 | – | –
[4], 112.24 K, Crystal | – | 79.93 | – | –
[4], 121.98 K, Crystal | – | 85.34 | – | –
[4], 131.78 K, Crystal | – | 90.96 | – | –
[4], 141.72 K, Crystal | – | 96.78 | – | –
[4], 148.27 K, Crystal | – | 100.69 | – | –
[4], 151.74 K, Crystal | – | 102.79 | – | –
[4], 157 K, Crystal | – | 106 | – | –
[4], 161.79 K, Crystal | – | 108.99 | – | –
[4], 166.83 K, Crystal | – | 112.14 | – | –
[4], 176.79 K, Crystal | – | 118.44 | – | –
[4], 186.88 K, Crystal | – | 124.97 | – | –
[4], 197.06 K, Crystal | – | 131.7 | – | –
[4], 207.29 K, Crystal | – | 138.54 | – | –
[4], 217.54 K, Crystal | – | 145.45 | – | –
[4], 227.79 K, Crystal | – | 152.5 | – | –
[4], 238.02 K, Crystal | – | 159.59 | – | –
[4], 248.23 K, Crystal | – | 166.76 | – | –
[4], 258.43 K, Crystal | – | 173.9 | – | –
[4], 268.62 K, Crystal | – | 181.08 | – | –
[4], 278.79 K, Crystal | – | 188.12 | – | –
[4], 288.98 K, Crystal | – | 195.25 | – | –
[4], 292.45 K, Crystal | – | 197.59 | – | –
[4], 299.09 K, Crystal | – | 202.31 | – | –
[4], 303.14 K, Crystal | – | 205.11 | – | –
[4], 315.26 K, Crystal | – | 213.62 | – | –
[4], 327.34 K, Crystal | – | 221.93 | – | –
[4], 339.58 K, Crystal | – | 230.27 | – | –
[4], 341.22 K, Crystal | – | 231.31 | – | –
[4], 351.33 K, Crystal | – | 238.27 | – | –
[4], 362.68 K, Crystal | – | 245.89 | – | –
[4], 375.17 K, Crystal | – | 254.22 | – | –
[4], 383.74 K, Crystal | – | 259.84 | – | –
[4], 387.73 K, Crystal | – | 262.47 | – | –
[4], 394.22 K, Crystal | – | 266.7 | – | –
[4], 400.35 K, Crystal | – | 270.7 | – | –
[4], 404.56 K, Crystal | – | 273.47 | – | –
[4], 413.04 K, Crystal | – | 278.97 | – | –
[4], 415.93 K, Crystal | – | 280.86 | – | –
[4], 426.29 K, Crystal | – | 287.62 | – | –
[4], 428.38 K, Crystal | – | 288.92 | – | –
[4], 438.38 K, Crystal | – | 296.29 | – | –
[4], 439.14 K, Crystal | – | 296.66 | – | –
[4], 453.29 K, Liquid | – | 334.17 | – | –
[4], 455.84 K, Liquid | – | 335.26 | – | –
[4], 456.63 K, Liquid | – | 335.61 | – | –
[4], 460.6 K, Liquid | – | 337.14 | – | –
[4], 461.49 K, Liquid | – | 337.63 | – | –
[4], 475.45 K, Liquid | – | 343.31 | – | –
[4], 490.19 K, Liquid | – | 349.18 | – | –
[4], 504.28 K, Liquid | – | 354.75 | – | –
[4], 510.36 K, Liquid | – | 357.26 | – | –
[4], 516.76 K, Liquid | – | 359.48 | – | –

Details | Molar enthalpy of transition or fusion [kJ/mol]
[2] | 24.92

Source: the NIST ThermoML archive (doi:10.1016/j.jct.2009.11.010)
